For orientation: IC50 means the concentration needed to halve the response being measured.

Results on two molecules are retold here after article PMC6838199 (Scientific Reports, 2019).

Common to all, as to assay: E1-E2 transthioesterification assay (UbcH5a, Coomassie gel), recombinant purified E1
What all share (type): biochemical

Experiment [1] concerns the target T1, TbUBA1a (Trypanosoma brucei, UniProt Q57XC5).
T1 construct: gene Tb08.26A17.680; GST fusion cleaved with HRV 3C

Experiment [2] addresses T2, human UBA1 (hUBA1), ubiquitin E1 activating enzyme (Homo sapiens, UniProt P22314).
T2 construct: N-terminal His-tagged hUBA1
T2 sequence (P22314 2-1058): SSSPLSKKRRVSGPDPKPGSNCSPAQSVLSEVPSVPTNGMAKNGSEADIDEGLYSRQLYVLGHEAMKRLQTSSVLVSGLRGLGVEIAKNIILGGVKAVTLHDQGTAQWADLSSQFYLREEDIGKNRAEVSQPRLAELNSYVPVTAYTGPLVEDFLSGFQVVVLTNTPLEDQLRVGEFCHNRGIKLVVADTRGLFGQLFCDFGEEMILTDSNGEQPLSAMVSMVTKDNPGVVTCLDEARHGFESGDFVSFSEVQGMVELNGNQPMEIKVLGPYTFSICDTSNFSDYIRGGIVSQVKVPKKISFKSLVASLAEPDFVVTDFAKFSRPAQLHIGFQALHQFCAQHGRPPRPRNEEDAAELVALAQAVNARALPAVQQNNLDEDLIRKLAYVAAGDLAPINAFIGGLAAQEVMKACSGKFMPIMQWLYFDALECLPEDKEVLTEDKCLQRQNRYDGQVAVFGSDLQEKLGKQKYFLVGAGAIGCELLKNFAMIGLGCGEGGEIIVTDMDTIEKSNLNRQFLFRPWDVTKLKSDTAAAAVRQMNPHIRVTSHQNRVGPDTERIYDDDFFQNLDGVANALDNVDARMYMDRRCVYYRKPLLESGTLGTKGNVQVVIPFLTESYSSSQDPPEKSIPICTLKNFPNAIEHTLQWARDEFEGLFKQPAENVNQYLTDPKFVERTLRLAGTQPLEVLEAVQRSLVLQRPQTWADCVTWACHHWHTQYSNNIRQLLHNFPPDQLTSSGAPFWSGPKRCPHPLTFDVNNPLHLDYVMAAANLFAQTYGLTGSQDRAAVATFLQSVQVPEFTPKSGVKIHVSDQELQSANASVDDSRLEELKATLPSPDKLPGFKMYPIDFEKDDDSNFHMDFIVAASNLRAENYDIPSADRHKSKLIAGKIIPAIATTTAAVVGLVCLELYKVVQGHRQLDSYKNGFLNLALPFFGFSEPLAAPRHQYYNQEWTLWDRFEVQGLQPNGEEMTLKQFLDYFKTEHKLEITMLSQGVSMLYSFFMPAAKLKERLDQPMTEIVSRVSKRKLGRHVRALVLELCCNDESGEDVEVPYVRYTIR

Experiment [3] has as its target T3, TbUBA1b (Trypanosoma brucei, UniProt Q38DE8).
T3 construct: gene Tb09.211.3610; GST fusion cleaved with thrombin
T3 sequence (Q38DE8 1-1214): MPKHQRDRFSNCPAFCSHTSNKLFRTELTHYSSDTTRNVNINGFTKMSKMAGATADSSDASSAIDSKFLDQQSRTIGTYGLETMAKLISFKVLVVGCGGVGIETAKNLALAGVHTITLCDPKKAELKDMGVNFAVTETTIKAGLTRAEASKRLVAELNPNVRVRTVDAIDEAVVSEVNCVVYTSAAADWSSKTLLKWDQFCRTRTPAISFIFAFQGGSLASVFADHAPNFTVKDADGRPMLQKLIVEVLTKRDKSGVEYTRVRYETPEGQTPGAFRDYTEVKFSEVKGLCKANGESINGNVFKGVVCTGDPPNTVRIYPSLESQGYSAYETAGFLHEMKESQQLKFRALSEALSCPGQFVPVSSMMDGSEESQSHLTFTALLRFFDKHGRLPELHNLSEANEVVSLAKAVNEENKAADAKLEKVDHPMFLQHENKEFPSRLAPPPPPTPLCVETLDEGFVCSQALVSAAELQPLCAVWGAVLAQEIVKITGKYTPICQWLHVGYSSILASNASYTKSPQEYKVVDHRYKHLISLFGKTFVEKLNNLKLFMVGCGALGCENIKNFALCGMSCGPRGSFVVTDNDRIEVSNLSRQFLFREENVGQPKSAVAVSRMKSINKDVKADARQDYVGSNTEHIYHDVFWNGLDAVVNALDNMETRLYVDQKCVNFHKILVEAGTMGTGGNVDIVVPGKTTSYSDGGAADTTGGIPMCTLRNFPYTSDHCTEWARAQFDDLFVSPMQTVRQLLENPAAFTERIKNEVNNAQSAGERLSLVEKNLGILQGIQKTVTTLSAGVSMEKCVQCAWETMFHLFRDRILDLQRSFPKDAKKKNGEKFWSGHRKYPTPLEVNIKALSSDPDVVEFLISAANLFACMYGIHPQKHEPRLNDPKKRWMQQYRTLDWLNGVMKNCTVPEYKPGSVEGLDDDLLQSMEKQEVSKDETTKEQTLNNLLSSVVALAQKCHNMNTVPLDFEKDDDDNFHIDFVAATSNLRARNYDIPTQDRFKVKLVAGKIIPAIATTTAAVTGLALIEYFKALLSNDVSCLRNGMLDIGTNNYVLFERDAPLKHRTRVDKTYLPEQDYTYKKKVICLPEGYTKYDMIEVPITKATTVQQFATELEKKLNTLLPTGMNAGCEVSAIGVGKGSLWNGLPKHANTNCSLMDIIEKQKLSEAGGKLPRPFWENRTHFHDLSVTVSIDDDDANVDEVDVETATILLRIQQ

For experiment [4], the target named is T4, TbUBA1b (Trypanosoma brucei, UniProt Q38DE8, E656D/T657A).
T4 construct: gene Tb09.211.3610; GST fusion cleaved with thrombin; with ubiquitin

Experiment [5] deals with T5, TbUBA1a (Trypanosoma brucei, UniProt Q57XC5, E559D/Q534P/S560A).
T5 construct: gene Tb08.26A17.680; GST fusion cleaved with HRV 3C; with ubiquitin

Experiment [6] concerns the target T6, TbUBA1b (Trypanosoma brucei, UniProt Q38DE8).
T6 construct: gene Tb09.211.3610; GST fusion cleaved with thrombin; with ubiquitin

T5 sequence (Q57XC5 whole entry E559D/Q534P/S560A, the tested form may be a part): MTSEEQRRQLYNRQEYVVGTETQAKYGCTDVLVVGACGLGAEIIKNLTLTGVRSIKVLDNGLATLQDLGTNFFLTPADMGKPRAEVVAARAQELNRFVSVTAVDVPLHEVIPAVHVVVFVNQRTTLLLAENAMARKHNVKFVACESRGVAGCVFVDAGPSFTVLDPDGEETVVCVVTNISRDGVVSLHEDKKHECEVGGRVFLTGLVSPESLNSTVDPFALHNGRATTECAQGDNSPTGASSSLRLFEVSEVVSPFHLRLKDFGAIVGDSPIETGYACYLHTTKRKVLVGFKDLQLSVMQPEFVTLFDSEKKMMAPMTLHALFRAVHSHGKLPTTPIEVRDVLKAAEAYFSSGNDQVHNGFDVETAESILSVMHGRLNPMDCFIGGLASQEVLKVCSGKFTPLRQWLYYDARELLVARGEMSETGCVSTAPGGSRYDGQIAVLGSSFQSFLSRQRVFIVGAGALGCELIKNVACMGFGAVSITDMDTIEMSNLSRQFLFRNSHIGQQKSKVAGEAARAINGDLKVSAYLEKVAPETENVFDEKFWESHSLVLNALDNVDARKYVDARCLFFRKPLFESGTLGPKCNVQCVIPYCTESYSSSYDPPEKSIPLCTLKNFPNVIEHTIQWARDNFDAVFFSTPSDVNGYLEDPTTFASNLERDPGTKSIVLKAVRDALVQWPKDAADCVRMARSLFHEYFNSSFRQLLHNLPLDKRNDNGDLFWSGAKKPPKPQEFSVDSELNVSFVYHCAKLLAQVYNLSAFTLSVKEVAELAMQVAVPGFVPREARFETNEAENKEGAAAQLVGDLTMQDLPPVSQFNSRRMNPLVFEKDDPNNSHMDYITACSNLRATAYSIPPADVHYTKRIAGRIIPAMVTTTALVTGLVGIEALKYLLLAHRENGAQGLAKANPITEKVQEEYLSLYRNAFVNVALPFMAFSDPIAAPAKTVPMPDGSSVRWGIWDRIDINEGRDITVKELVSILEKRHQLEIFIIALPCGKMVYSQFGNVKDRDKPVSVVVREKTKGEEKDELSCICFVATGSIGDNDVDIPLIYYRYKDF
T1 sequence (Q57XC5 1-1055): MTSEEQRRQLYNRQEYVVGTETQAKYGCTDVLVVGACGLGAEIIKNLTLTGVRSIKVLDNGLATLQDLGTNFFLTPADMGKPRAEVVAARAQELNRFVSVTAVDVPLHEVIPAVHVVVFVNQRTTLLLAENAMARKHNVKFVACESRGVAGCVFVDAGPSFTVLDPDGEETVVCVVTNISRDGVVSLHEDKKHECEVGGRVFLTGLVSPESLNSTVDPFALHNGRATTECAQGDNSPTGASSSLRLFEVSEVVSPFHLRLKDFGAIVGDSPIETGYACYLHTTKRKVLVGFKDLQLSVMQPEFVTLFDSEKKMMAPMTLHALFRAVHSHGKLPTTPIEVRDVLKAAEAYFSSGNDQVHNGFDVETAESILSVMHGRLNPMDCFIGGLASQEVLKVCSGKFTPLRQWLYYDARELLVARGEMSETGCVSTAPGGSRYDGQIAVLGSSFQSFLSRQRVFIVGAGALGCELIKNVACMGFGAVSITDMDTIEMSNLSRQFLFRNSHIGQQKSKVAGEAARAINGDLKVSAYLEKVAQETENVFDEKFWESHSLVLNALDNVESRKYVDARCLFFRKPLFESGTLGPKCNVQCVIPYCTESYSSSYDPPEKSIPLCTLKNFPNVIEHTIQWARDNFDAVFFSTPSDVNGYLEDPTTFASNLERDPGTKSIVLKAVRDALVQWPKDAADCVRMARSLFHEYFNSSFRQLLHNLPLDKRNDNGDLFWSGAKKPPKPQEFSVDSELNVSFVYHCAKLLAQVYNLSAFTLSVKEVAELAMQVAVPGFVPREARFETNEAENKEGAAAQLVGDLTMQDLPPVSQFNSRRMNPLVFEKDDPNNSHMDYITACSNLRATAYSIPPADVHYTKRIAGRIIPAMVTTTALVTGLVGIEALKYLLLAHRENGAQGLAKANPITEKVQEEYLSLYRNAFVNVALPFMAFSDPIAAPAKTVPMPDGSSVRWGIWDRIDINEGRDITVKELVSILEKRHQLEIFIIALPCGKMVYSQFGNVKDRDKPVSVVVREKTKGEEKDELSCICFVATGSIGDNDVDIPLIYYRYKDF

`CCOC(=O)c1ccc(N2NC(=O)C(=Cc3ccc([N+](=O)[O-])o3)C2=O)cc1` [PYR-41]: the “E1-E2 transthioesterification assay (UbcH5a, Coomassie gel), recombinant purifie” value is “the TbUBA1s were slightly (~two-fold) more sensitive to PYR-41 than hUBA1” in experiment [1]; “we observed very little difference between inhibition of human and the T. brucei UBA1s (Fig. 3C)” in experiment [2]; “the TbUBA1s were slightly (~two-fold) more sensitive to PYR-41 than hUBA1” in experiment [3].
On to `NS(=O)(=O)OC[C@H]1C[C@@H](Nc2ccnc3cc(-c4cccc(SC(F)(F)F)c4)nn23)[C@H](O)[C@@H]1O` [TAK-243], for which, in experiment [4], the “E1-E2 transthioesterification assay (UbcH5a, Coomassie gel), recombinant purifie” value is listed as “The increase in inhibition of the double mutant E656D, T657A was almost as large as that of the triple mutant”. Moreover, the IC50 came to 12 µM in experiment [5] and 159 µM in experiment [6].
